Data taken from publication PMC9482650, “Quantitative fragmentomics allow affinity mapping of interactomes” (Nature Communications, 2022).
Like-named read-outs stand apart in the source and are kept apart here. Ends that are not written are not given here.

Tests used:
Experiment in all cases: Holdup assay
Assay type in all cases: binding
SNX27 PDZ = SNX27 PDZ (Homo sapiens, UniProt Q96L92)
TX1BP3 PDZ = target: T1, TX1BP3 PDZ (Homo sapiens, UniProt O14907)
T1 sequence (O14907 15-112 limits assumed): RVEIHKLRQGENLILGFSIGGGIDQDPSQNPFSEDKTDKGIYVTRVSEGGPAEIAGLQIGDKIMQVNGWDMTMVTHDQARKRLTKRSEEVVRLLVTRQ

SCRIB_1 PDZ = SCRIB_1 PDZ (Homo sapiens, UniProt Q14160)
SCRIB_1 PDZ, sequence (Q14160 728-815 limits assumed): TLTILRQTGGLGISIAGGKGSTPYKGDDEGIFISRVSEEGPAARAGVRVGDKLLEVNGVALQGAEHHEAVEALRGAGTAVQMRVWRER

SCRIB2 PDZ = target: T2, SCRIB2 PDZ (Homo sapiens, UniProt Q14160)
T2 sequence (Q14160 862-950 limits assumed): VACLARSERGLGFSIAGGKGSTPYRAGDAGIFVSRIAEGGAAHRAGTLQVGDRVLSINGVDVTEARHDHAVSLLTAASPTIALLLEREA

DLG1_2 PDZ = DLG1_2 PDZ (Homo sapiens, UniProt Q12959)
DLG1_1 PDZ = DLG1_1 PDZ (Homo sapiens, UniProt Q12959)
[1] = PBM motif of the named protein vs TX1BP3 PDZ, read-out: pKd values – domain-motif, TX1BP3 (converted)
[2] = PBM motif of the named protein vs SCRIB_1 PDZ, read-out: pKd values – domain-motif, SCRIB_1 (converted)
[3] = PBM motif of the named protein vs SCRIB_2 PDZ, read-out: pKd values – domain-motif, SCRIB_2 (converted)
[4] = holdup affinity of the PBM peptide of the named protein, sheet PBMcomplexome, lower sub-table
[5] = holdup affinity of the PBM peptide of the named protein, sheet PBMcomplexome, lower sub-table, 3.5 appears to be the floor for no detectable binding, read-out: affinity of PBM to TX1BP3 (pKd) (converted)
[6] = holdup affinity of the PBM peptide of the named protein, sheet PBMcomplexome, lower sub-table, 3.5 appears to be the floor for no detectable binding, read-out: affinity of PBM to SCRIB_1 (pKd) (converted)
[7] = holdup affinity of the PBM peptide of the named protein, sheet PBMcomplexome, lower sub-table, 3.5 appears to be the floor for no detectable binding, read-out: affinity of PBM to DLG1_2 (pKd) (converted)
[8] = holdup affinity of the PBM peptide of the named protein, sheet PBMcomplexome, lower sub-table, 3.5 appears to be the floor for no detectable binding, read-out: affinity of PBM to SCRIB_2 (pKd) (converted)
[9] = PBM motif of the named protein vs DLG1_1 PDZ, read-out: pKd values – domain-motif, DLG1_1 (converted)
[10] = PBM motif of the named protein vs DLG1_2 PDZ, read-out: pKd values – domain-motif, DLG1_2 (converted)

`CC(C)C[C@H](NC(=O)[C@H](CC(=O)O)NC(=O)[C@@H](NC(=O)[C@H](CC(=O)O)NC(=O)[C@H](Cc1ccccc1)NC(=O)[C@H](Cc1c[nH]c2ccccc12)NC(=O)[C@H](C)NC(=O)[C@H](CC(C)C)NC(=O)[C@H](CCC(N)=O)NC(=O)[C@@H](N)CC(N)=O)[C@@H](C)O)C(=O)O` [CTNNB1] gave a Kd (SNX27 PDZ) of 12.3 µM, a Kd (TX1BP3 PDZ; [1]) of 1.02 µM and a Kd (SCRIB_1 PDZ; [2]) of 13.8 µM. The Kd (SCRIB2 PDZ; [3]) was 269 µM.

GYDWGPATDL [TJP3/ZO3] showed a Kd (SNX27 PDZ; [4]) of 229 µM, a Kd (TX1BP3 PDZ; [5]) of 40.7 µM and a Kd (SCRIB_1 PDZ; [6]) of 174 µM. The Kd (DLG1_2 PDZ; [7]) was 245 µM and the Kd (SCRIB2 PDZ; [8]) was 166 µM.

For IKAIVDLTGL [TRAF2], the Kd (SNX27 PDZ; [4]) was 309 µM.

KIEDVEITLV [FCHSD2] gave a Kd (DLG1_1 PDZ; [9]) of 162 µM, a Kd (SNX27 PDZ) of 9.77 µM and a Kd (TX1BP3 PDZ; [1]) of 105 µM. It also gave a Kd (SCRIB_1 PDZ; [2]) of 158 µM and a Kd (DLG1_2 PDZ; [10]) of 50.1 µM.

Molecule KQVVPFSSSV [GDA] has a Kd (DLG1_1 PDZ; [9]) of 129 µM, a Kd (SNX27 PDZ) of 295 µM and a Kd (TX1BP3 PDZ; [1]) of 49 µM. The Kd (SCRIB_1 PDZ; [2]) was 309 µM and the Kd (DLG1_2 PDZ; [10]) was 41.7 µM.

LCALPKVTTV [AGMAT] was tested, and the Kd (DLG1_1 PDZ; [9]) was 10.7 µM, the Kd (SNX27 PDZ) was 37.2 µM and the Kd (TX1BP3 PDZ; [1]) was 85.1 µM. The Kd (SCRIB_1 PDZ; [2]) was 40.7 µM and the Kd (DLG1_2 PDZ; [10]) was 1.35 µM.

In the case of LESTTVGTSV [KARS1], the Kd (DLG1_1 PDZ; [9]) is reported as 53.7 µM, the Kd (SNX27 PDZ) is reported as 35.5 µM and the Kd (TX1BP3 PDZ; [1]) is reported as 251 µM. The Kd (SCRIB_1 PDZ; [2]) was 155 µM, the Kd (DLG1_2 PDZ; [10]) was 45.7 µM and the Kd (SCRIB2 PDZ; [3]) was 34.7 µM.

Molecule PELESKESVL [SLC1A4] has a Kd (DLG1_1 PDZ; [9]) of 309 µM, a Kd (SNX27 PDZ) of 3.72 µM and a Kd (TX1BP3 PDZ; [1]) of 79.4 µM. For the same molecule, the Kd (SCRIB_1 PDZ; [2]) was 66.1 µM and the Kd (DLG1_2 PDZ; [10]) was 91.2 µM.

PKRPFVESNV [TANC2] gave a Kd (DLG1_1 PDZ; holdup affinity of the PBM peptide of the named protein, sheet PBMcomplexome, lower sub-table, 3.5 appears to be the floor for no detectable binding, read-out: affinity of PBM to DLG1_1 (pKd) (converted)) of 49 µM, a Kd (SNX27 PDZ; [4]) of 15.8 µM and a Kd (TX1BP3 PDZ; [5]) of 1.26 µM. The Kd (SCRIB_1 PDZ; [6]) was 17.8 µM, the Kd (DLG1_2 PDZ; [7]) was 22.4 µM and the Kd (SCRIB2 PDZ; [8]) was 25.7 µM.

PKRSFIESNV [TANC1] showed a Kd (DLG1_1 PDZ; [9]) of 20.4 µM, a Kd (SNX27 PDZ) of 3.09 µM and a Kd (TX1BP3 PDZ; [1]) of 1.91 µM. The Kd (SCRIB_1 PDZ; [2]) was 6.31 µM, the Kd (DLG1_2 PDZ; [10]) was 11 µM and the Kd (SCRIB2 PDZ; [3]) was 13.2 µM.

PRVKPQRSKV [PPP1R13L] gave a Kd (TX1BP3 PDZ; [1]) of 151 µM.

With TESNLQTSSC [CGN] the Kd (SNX27 PDZ) was 22.4 µM.
